# Experimental data published in patent publication US5643947A, “ω-amino-α-phenylalkanonitrile derivatives” (G. D. Searle & Co., priority 1995, dated 1997).
# Where two headings read alike, the source gives them in different places.
# Tests used:
# [1] = tested on: serotonin-2 (5-HT2) receptors of both blood vessels and brain; settings: DeFeudis 1989; cited from earlier work
# [2] = tested on: calcium channel; settings: DeFeudis 1989; cited from earlier work
# [3] = Acute oral toxicity in mice; settings: mouse, in vivo, male mice, mortality over 15 days
# Method: Compounds #1, #2 , #3, #4 and #7 were tested for acute toxicity. The acute toxicity was determined after oral administration of the test compound to mice. Compound to be tested was suspended in a 1% tragacanth gum mucilage and was administered by means of an intragastric tube to a group of three male mice per dose. The mortailty was recorded over a period of 15 days.
# [4] = molecular target: α1 -adrenergic receptor; assay: α1-adrenergic receptor binding, 3H-WB4101, rat forebrain; settings: for α1 pKi: rat forebrain, 3H-WB-4101 1.6 nM, pH 7.4, 25 °C, 15 min, values marked (2) are estimated; for affinity for the α1 -adrenergic receptor: 3H-WB4101, rat forebrain, in words
# Method: (§1) Methodological Data for In Vitro Binding Assay of Various Receptors
# (§2) KD values (Dissociation Constant) were determined by Scatchard analysis. Ki values (Inhibition Constant) were calculated according to the Cheng and Prusoff equation, using IC50 values: [formula]
# [5] = tested on: spontaneously hypertensive rats; assay: Antihypertensive activity in spontaneously hypertensive rats (SHR); format: in vivo, rat; settings: 60 mg/kg oral; for SHR score: systolic pressure up to 3 hours; for lowering of the systolic blood pressure: SHR
# Method: The biological activity of the compounds of the invention was evaluated in vivo on spontaneous hypertensive rats. In this test, antihypertensive activity was tested by oral administration to non-anaesthetized, spontaneously hypertensive rats, on which the systolic arterial pressure was measured at the median coccygeal artery by means of a plethysmographic method [J. Roba, G. Lambelin, A. F. De Schaepdryver, Arch. Int. Pharmacodyn., 200, 182 (1972)]. The arterial pressure was measured every 30 minutes from two hours before to three hours after oral administration of 60 mg/kg of the test compounds or of a placebo (1% tragacanth gum mucilage). Only rats having a systolic pressure of 180 to 220 mmHg were used. Each compound was tested in two rats.
# The antihypertensive effects were rated as follows:
# +: reduction of 10 to 20 mm Hg.
# ++: reduction of 20 to 30 mm Hg.
# +++: reduction of 30 to 40 mm Hg.
# ++++: reduction >40 mm Hg.
# [6] = tested on: femoral arterial circulation; assay: Vasodilation in perfused hindlimb of anaesthetized dog; format: in vivo; settings: for VASODILATION score: 30 mcg/kg injected into perfused femoral artery, vs papaverine; for vasodilator activity compared with papaverine: 30 mcg/kg, in words
# Method: The peripheral vasodilator activity of compounds of the invention was measured in anaesthetized dog at the femoral arterial circulation. For this procedure, the femoral artery (the collaterals of which were ligated) was perfused with a constant flow rate of blood taken from aorta. The perfusion pressure measured at the femoral artery varied as a function of the resistance of the perfused area. The test compounds in diluted solvents were directly injected in the system at a dose of 30 mcg/kg. With the blood circulation rate being maintained constant, vasodilation was thus measured by a decrease of the perfusion pressure, in comparison with the action of papaverine considered as standard. The vasodilator activity was rated as follows:
# +: 1/3 of the papaverine activity.
# ++: 2/3 of the papaverine activity.
# +++: activity equal to that of papaverine (i.e. 30 to 40 mm Hg).
# ++++: activity higher than that of papaverine.
# [7] = molecular target: T1, slow Ca^2+ channel binding sites (Cavia porcellus, UniProt O35505); assay: Ca2+ receptor binding, 3H-nitrendipine competition; parameters: species or system guinea-pig; settings: for competition curve at slow Ca^2+ channel binding sites: 3H-nitrendipine competition, in words; for Ki: guinea-pig forebrain, 3H-nitrendipine 0.2 nM, pH 7.4, 25 °C, 90 min, read-out: CA2^+ BINDING pKi (converted)
# T1 construct: forebrain; from tissue; host or cells: guinea-pig forebrain
# Method: (§3) Receptor binding experiments were conducted under the experimental conditions described in Table III. ^3 H-nitrendipine is the radioligand of choice to determine, after competition at different concentrations, the affinity of compounds of the invention, for the slow Ca^2+ channel binding sites. […] After this in vitro biochemical testing, the compounds of the invention were tested for their CA^2+ antagonist properties on isolated organs. The method used was updated from M Spedding (Nauyn-Schmiedeberg's Arch. Pharmacol., 318, 234-240, 1982) and can be summarized as follows: Aorta rings from male rats were prepared and maintained in oxygenated Krebs solution at 37° C. The contractions were induced by 40 mM K+ in the absence or in the presence of the test compound. Each test compound was tested at least twice. […] The phasic and tonic parts of each response elicited by K+ were considered separately and were expressed in % of their corresponding controls. The IC50 values (from pIC50) were estimated by plotting the % response against the log of the concentrations.
# as §1, §2
# [8] = molecular target: T2, 5HT2 receptor (Rattus norvegicus, UniProt P14842); assay: 5HT2 receptor binding, 3H-ketanserin, rat frontal cortex
# T2 construct: frontal cortex preparations of rat; from tissue; host or cells: rat frontal cortex
# Method: as §1, §2
# [9] = tested on: Aorta rings; assay: Ca2+ antagonism on isolated rat aorta rings, contractions induced by 40 mM K+; format: cell-based; settings: for inhibition of phasic and tonic phases of the contractions: in words
# Method: as §3, with “The method used was updated from M Spedding (Nauyn-Schmiedeberg's Arch. Pharmacol., 318, 234-240, 1982) and can be summarized as follows: Aorta rings from male rats were prepared and maintained in oxygenated Krebs solution at 37° C.” left out
# [10] = 37 °C, phasic part, read-out: AORTA/K+ pIC50 phasic (converted)
# [11] = 37 °C, tonic part, read-out: AORTA/K+ pIC50 tonic (converted)
# [12] = read-out: Concentration inhibiting the contractions by 50%
# T1 sequence (O35505 whole entry): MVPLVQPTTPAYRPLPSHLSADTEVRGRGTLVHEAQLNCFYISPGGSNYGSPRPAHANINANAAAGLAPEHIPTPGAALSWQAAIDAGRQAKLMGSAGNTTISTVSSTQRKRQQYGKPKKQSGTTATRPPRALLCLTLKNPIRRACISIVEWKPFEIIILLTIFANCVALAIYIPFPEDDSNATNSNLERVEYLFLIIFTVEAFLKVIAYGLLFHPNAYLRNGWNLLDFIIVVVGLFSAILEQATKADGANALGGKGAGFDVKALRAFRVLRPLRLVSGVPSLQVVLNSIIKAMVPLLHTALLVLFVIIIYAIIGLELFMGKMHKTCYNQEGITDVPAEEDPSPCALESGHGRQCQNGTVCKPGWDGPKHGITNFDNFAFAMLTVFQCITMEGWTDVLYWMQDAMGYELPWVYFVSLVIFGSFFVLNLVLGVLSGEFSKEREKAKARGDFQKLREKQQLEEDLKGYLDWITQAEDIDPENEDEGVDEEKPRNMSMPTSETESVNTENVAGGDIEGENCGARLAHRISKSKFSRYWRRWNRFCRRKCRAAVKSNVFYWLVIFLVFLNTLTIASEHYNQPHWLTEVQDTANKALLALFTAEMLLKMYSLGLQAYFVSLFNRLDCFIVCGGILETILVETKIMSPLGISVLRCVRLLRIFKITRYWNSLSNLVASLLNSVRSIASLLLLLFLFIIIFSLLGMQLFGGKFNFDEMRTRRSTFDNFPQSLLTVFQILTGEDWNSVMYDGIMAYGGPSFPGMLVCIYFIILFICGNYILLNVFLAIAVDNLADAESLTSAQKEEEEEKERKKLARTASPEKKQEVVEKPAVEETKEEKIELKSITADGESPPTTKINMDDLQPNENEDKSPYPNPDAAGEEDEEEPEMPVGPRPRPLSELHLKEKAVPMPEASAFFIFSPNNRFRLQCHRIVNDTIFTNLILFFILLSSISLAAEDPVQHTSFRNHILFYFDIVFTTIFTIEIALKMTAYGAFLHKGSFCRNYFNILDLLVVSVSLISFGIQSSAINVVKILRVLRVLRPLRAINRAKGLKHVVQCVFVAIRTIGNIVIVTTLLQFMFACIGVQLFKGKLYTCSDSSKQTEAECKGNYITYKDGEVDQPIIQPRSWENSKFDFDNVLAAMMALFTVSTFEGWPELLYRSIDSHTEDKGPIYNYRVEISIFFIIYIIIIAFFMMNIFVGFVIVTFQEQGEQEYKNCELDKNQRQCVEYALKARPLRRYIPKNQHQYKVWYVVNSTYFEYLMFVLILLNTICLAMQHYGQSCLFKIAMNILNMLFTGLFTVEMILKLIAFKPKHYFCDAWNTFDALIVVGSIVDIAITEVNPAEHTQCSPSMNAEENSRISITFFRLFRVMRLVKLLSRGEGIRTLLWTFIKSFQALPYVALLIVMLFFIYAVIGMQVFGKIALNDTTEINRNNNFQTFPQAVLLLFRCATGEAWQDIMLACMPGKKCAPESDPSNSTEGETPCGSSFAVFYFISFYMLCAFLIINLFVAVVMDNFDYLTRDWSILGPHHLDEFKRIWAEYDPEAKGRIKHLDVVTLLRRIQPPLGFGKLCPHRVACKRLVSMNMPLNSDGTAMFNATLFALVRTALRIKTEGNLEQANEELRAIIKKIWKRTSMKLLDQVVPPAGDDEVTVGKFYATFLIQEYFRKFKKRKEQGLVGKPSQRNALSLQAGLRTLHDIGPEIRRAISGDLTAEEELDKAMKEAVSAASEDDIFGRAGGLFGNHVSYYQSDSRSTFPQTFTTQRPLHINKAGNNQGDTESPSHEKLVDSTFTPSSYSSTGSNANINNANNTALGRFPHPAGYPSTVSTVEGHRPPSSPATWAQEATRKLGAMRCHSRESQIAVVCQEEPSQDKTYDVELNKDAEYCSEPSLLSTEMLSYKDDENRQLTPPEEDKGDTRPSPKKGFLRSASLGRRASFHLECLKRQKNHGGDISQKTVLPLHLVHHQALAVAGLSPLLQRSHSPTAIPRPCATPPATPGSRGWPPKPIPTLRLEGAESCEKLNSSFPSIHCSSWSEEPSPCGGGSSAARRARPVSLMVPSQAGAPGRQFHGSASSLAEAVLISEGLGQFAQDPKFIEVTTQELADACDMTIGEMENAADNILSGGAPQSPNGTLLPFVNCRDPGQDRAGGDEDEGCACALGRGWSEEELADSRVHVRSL
# T2 sequence (P14842 whole entry): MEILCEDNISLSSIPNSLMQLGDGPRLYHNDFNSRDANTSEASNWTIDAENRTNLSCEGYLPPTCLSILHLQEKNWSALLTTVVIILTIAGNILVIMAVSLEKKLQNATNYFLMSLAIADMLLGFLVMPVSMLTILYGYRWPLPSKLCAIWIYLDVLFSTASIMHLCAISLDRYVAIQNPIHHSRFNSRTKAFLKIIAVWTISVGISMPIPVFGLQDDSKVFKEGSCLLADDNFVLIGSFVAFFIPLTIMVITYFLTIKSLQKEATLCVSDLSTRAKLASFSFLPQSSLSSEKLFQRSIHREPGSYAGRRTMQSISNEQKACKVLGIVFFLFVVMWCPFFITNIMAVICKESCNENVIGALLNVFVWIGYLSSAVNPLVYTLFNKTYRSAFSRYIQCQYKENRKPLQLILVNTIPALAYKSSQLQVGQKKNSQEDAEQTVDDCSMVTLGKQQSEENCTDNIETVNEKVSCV
SMILES,LD50 at 360 h [3],α1 pKi [4],VASODILATION score [6],competition curve at slow Ca^2+ channel binding sites [7],Ki [8],affinity for the α1 -adrenergic receptor [4],Ki [7],other results
CC(C)[C@@](C#N)(CCCN(C)CCc1ccccc1)c1ccccc1 [(S)-emopamil],–,–,–,–,–,–,–,action at serotonin-2 (5-HT2) receptors [1]: antagonist at serotonin-2 (5-HT2) receptors; calcium channel blocking activity [2]: showing calcium channel blocking activity
"CCCCCCCCN(C)CCCC(C#N)(c1ccc(OC)c(OC)c1)C(C)C (centres unmarked) [Compound #1, 5-[(n-octyl)methylamino]-2-(3,4-dimethoxyphenyl) -2-isopropyl-valeronitrile]",> 300 mg/kg,≤ 6,++++,does not reach the non-specific base-line,0.1 µM,–,–,"SHR score [5]: ++++ (reduction >40 mm Hg.); lowering of the systolic blood pressure [5]: more than 40 mm Hg; vasodilator activity compared with papaverine [6]: more active than papaverine; IC50 [9, 10]: 0.2 µM; IC50 [9, 11]: 0.2 µM; inhibition of phasic and tonic phases of the contractions [9]: similarly inhibited; IC50 [9, 12]: 0.2 µM"
"COc1ccc(C(C#N)(CCCN(C)CCCCc2ccccc2)C(C)C)cc1OC (centres unmarked) [Compound #2, 5-[(4-phenylbutyl)methylamino]-2-(3,4-dimethoxyphenyl)-2-isopropylvaleronitrile]",350 mg/kg,7,++++,does not reach the non-specific base-line,0.1 µM,display affinity for the α1 -adrenergic receptor,–,"SHR score [5]: ++++ (reduction >40 mm Hg.); lowering of the systolic blood pressure [5]: more than 40 mm Hg; vasodilator activity compared with papaverine [6]: more active than papaverine; IC50 [9, 10]: 0.0631 µM; IC50 [9, 11]: 0.1 µM; inhibition of phasic and tonic phases of the contractions [9]: similarly inhibited; IC50 [9, 12]: 0.06 µM"
"COc1ccc(C(C#N)(CCCN(C)CCCCCc2ccccc2)C(C)C)cc1OC (centres unmarked) [compound 3, 5-[5-(phenylpentyl)methylamino]-2-(3,4-dimethoxyphenyl)-2-isopropylvaleronitrile]",470 mg/kg,≤ 6,+++ (activity equal to that of papaverine (i.e. 30 to 40 mm Hg).),reaching the non-specific level,0.01 µM,–,0.251 µM,–
COc1ccc(C(C#N)(CCCN(C)CCCc2ccccc2)C(C)C)cc1OC (centres unmarked) [compound 4],540 mg/kg,≤ 6,–,does not reach the non-specific base-line,0.0316 µM,–,–,–
CCCCCCCCN(CCCC(C#N)(c1ccc(OC)c(OC)c1)C(C)C)Cc1ccccc1 (centres unmarked) [compound 5],–,≤ 6,–,reaching the non-specific level,> 1 µM,–,0.501 µM,–
"CCCCCCCCCCN(C)CCCC(C#N)(c1ccc(OC)c(OC)c1)C(C)C (centres unmarked) [compound 6, 5-[(n-decyl)methylamino]-2-(3,4-dimethoxyphenyl)-2-isopropylvaleronitrile]",–,< 6,–,reaching the non-specific level,0.1 µM,–,0.0398 µM,"IC50 ([9]; 37 °C, one value printed for phasic/tonic, read-out: AORTA/K+ pIC50 phasic/tonic (converted)): ≥ 1 µM"
COc1ccc(C(C#N)(CCCN(C)CC=Cc2ccccc2)C(C)C)cc1OC (centres unmarked) [compound 7],> 1000 mg/kg,6.8,–,does not reach the non-specific base-line,–,display affinity for the α1 -adrenergic receptor,–,–
CCCCCCCCNCCCC(C#N)(c1ccc(OC)c(OC)c1)C(C)C (centres unmarked) [compound 8],–,6.7,–,reaching the non-specific level,0.158 µM,display affinity for the α1 -adrenergic receptor,0.126 µM,–
"CCOC(=O)C1=C(C)NC(C)=C(C(=O)OC)C1c1cccc([N+](=O)[O-])c1 (centres unmarked) [nitrendipine, reference compound]",–,–,–,–,–,–,–,Kd [7]: 0.0002 µM
